Assays:
[1] = target: PKC Delta (Homo sapiens, UniProt Q05655); test: PKC delta coupled-enzyme kinase assay (NADH consumption); format: biochemical; settings: 240 μM ATP, 30° C.
Experimental: [The source words this procedure for another target and reports this target under the same test.] (§1) An assay buffer solution was prepared which consisted of 100 mM HEPES (pH 7.5), 10 mM MgCl2, 25 mM NaCl, 0.1 mM EDTA and 0.01% Brij. An enzyme buffer containing reagents to final assay concentrations of 0.00001% Triton X-100, 200 μg/mL Phosphatidylserine, 20 μg/mL Diacylglycerol, 360 μM NADH, 3 mM phosphoenolpyruvate, 70 μg/mL pyruvate kinase, 24 μg/mL lactate dehydrogenase, 2 mM DTT, 100 μM substrate peptide (ERMRPRKRQGSVRRRV (SEQ ID NO: 1)) and 18 nM PKC theta kinase was prepared in assay buffer. To 60 μL of this enzyme buffer, in a 384 well plate, was added 2 μL of VRT stock solution in DMSO. The mixture was allowed to equilibrate for 10 mins at 30° C. The enzyme reaction was initiated by the addition of 5 μL stock ATP solution prepared in assay buffer to a final assay concentration of 240 μM. Initial rate data was determined from the rate of change of absorbance at 340 nm (corresponding to stoichiometric consumption of NADH) using a Molecular Devices Spectramax plate reader (Sunnyvale, Calif.) over 15 mins at 30° C. For each Ki determination 12 data points covering the VRT concentration range of 0-20 μM were obtained in duplicate (DMSO stocks were prepared from an initial 10 mM VRT stock with subsequent 1:2 serial dilutions). Ki values were calculated from initial rate data by non-linear regression using the Prism software package (Prism 4.0a, Graphpad Software, San Diego, Calif.).

[2] = target: PKC theta kinase (Homo sapiens, UniProt Q04759); test: PKC theta coupled-enzyme kinase assay (NADH consumption); format: biochemical; settings: 240 μM ATP, 30° C.
PKC theta kinase, sequence (Q04759 whole entry): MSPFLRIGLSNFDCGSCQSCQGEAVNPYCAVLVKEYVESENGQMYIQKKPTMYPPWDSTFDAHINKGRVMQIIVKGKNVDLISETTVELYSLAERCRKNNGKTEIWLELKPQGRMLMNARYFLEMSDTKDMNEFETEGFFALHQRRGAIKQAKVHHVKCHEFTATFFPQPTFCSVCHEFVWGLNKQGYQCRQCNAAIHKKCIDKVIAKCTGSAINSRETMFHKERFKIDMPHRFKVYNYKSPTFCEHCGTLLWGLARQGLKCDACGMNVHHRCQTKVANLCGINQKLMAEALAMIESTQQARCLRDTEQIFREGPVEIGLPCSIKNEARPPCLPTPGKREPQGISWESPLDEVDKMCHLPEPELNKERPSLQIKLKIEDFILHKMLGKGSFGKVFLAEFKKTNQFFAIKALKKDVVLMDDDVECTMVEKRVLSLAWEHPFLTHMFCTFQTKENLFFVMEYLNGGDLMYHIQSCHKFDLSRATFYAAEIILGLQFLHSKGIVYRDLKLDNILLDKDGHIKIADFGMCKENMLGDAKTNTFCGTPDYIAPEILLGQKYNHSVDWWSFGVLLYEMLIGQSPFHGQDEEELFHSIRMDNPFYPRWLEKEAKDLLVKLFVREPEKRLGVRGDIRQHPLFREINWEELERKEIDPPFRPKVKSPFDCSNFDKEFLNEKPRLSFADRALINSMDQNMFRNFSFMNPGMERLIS
Experimental: as §1

PKC Delta, sequence (Q05655 whole entry): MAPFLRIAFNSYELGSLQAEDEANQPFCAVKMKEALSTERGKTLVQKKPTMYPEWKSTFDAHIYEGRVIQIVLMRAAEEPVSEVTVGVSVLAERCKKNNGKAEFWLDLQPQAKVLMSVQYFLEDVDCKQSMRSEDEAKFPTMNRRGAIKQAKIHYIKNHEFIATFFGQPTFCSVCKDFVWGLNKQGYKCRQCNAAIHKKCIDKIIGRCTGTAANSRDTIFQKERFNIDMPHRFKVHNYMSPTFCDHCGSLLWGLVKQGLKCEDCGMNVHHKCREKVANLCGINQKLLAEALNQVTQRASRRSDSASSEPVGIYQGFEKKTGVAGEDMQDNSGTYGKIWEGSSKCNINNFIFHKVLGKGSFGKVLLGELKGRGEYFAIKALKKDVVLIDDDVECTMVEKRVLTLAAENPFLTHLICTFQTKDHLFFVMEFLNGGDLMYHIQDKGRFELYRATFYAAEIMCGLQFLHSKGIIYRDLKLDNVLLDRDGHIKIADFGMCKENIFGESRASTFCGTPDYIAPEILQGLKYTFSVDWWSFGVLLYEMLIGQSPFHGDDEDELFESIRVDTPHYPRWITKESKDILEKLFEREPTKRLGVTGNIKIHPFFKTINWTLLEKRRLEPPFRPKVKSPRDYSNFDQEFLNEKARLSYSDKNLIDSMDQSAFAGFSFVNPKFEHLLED

Structure (SMILES)	Ki [1] [nM]	Ki [2] [nM]
FC(F)(F)c1ccc(NC2CCNCC2)nc1-c1n[nH]c2ncccc12 [Compound 40]	< 2800	< 2800
N#CCCOc1ccc(C(F)(F)F)c(-c2n[nH]c3ncccc23)n1 [Compound 45]	> 700	> 700
CCN1CCC(Oc2ccc(C(F)(F)F)c(-c3n[nH]c4ncccc34)n2)C1 (stereo not shown) [Compound 56]	> 700	> 700
CN1CCCC(COc2ccc(C(F)(F)F)c(-c3n[nH]c4ncccc34)n2)C1 (stereo not shown) [Compound 55]	> 700	> 700
FC(F)(F)c1ccc(NCC2CCCN2)nc1-c1n[nH]c2ncccc12 (stereo not shown) [Compound 28]	> 700	> 700
CC(C)CC1(CNc2ccc(C(F)(F)F)c(-c3n[nH]c4ncccc34)n2)CNC1 [Compound 67]	< 50	< 50
NC1CCCCC1Nc1cccc(-c2n[nH]c3ncccc23)n1 (stereo not shown) [Compound 3]	< 500	< 500
CN(CC#N)c1ccc(C(F)(F)F)c(-c2n[nH]c3ncccc23)n1 [Compound 44]	< 500	< 500
CCC(O)CNc1ccc(C(F)(F)F)c(-c2n[nH]c3ncccc23)n1 (stereo not shown) [Compound 83]	> 700	> 700
c1cc(NCC2CCCN2)nc(-c2n[nH]c3ncccc23)c1 (stereo not shown) [Compound 20]	> 700	> 700
FC(F)(F)c1ccc(OC[C@@H]2CCCN3CCCC[C@@H]23)nc1-c1n[nH]c2ncccc12 [Compound 74]	> 700	> 700
OCCNc1cccc(-c2n[nH]c3ncccc23)n1 [Compound 8]	> 700	> 700
CC(C)CC1(CNc2ccc(F)c(-c3n[nH]c4ncccc34)n2)CNC1 [Compound 68]	< 50	< 50
c1cc(NCC2CCCNC2)nc(-c2n[nH]c3ncccc23)c1 (stereo not shown) [Compound 12]	< 500	< 500
FC(F)(F)c1ccc(NCCN2CCCC2)nc1-c1n[nH]c2ncccc12 [Compound 60]	> 700	> 700
CC(C)C[C@@H](CN)Nc1cccc(-c2n[nH]c3ncccc23)n1 [Compound 17]	> 700	> 700
CNCCN(C)c1cccc(-c2n[nH]c3ncccc23)n1 [Compound 5]	< 2800	< 2800
FC(F)(F)c1ccc(OC[C@@H]2CCCN2)nc1-c1n[nH]c2ncccc12 [Compound 51]	> 700	> 700
OCCN(CCO)c1ccc(C(F)(F)F)c(-c2n[nH]c3ncccc23)n1 [Compound 76]	> 700	> 700
CC(C)CC(O)CNc1cccc(-c2n[nH]c3ncccc23)n1 (stereo not shown) [Compound 21]	> 700	> 700
CC(O)CNc1ccc(C(F)(F)F)c(-c2n[nH]c3ncccc23)n1 (stereo not shown) [Compound 53]	> 700	> 700
CC(C)(CN)COc1ccc(C(F)(F)F)c(-c2n[nH]c3ncccc23)n1 [Compound 54]	> 700	> 700
CC(C)C[C@@H](N)COc1ccc(C(F)(F)F)c(-c2n[nH]c3ncccc23)n1 [Compound 39]	> 700	> 700
OC1CCCCC1Nc1ccc(C(F)(F)F)c(-c2n[nH]c3ncccc23)n1 (stereo not shown) [Compound 84]	> 700	> 700
NC(=O)c1ccsc1Nc1ccc(C(F)(F)F)c(-c2n[nH]c3ncccc23)n1 [Compound 50]	> 700	> 700

Structure (SMILES)	Ki [1] [nM]	Ki [2] [nM]
O[C@H](CNc1ccc(C(F)(F)F)c(-c2n[nH]c3ncccc23)n1)c1ccccc1 [Compound 19]	< 500	< 500
NCc1ccc(Nc2ccc(C(F)(F)F)c(-c3n[nH]c4ncccc34)n2)cc1 [Compound 48]	> 700	> 700
CCC(CO)Nc1ccc(C(F)(F)F)c(-c2n[nH]c3ncccc23)n1 (stereo not shown) [Compound 80]	> 700	> 700
FC(F)(F)c1ccc(NCC2CCNCC2)nc1-c1n[nH]c2ncccc12 [Compound 27]	> 700	> 700
OC1(CNc2ccc(C(F)(F)F)c(-c3n[nH]c4ncccc34)n2)CCCCC1 [Compound 47]	< 500	< 500
NC(COc1ccc(C(F)(F)F)c(-c2n[nH]c3ncccc23)n1)c1ccccc1 (stereo not shown) [Compound 37]	< 500	< 500
NCC1CCCC(CNc2ccc(C(F)(F)F)c(-c3n[nH]c4ncccc34)n2)C1 (stereo not shown) [Compound 34]	> 700	> 700
NC1CCC(Oc2ccc(C(F)(F)F)c(-c3n[nH]c4ncccc34)n2)CC1 (stereo not shown) [Compound 59]	> 700	> 700
NC1CCC(CNc2ccc(C(F)(F)F)c(-c3n[nH]c4ncccc34)n2)CC1 (stereo not shown) [Compound 25, N-((4-aminocyclohexyl)methyl)-6-(1H-pyrazolo[3,4-b]pyridin-3-yl)-5-(trifluoromethyl)pyridin-2-amine]	< 500	< 500
NCC(CNc1cccc(-c2n[nH]c3ncccc23)n1)c1ccccc1 (stereo not shown) [Compound 9]	< 50	< 50
FC(F)(F)c1ccc(NCC2CNC2)nc1-c1n[nH]c2ncccc12 [Compound 66]	> 700	> 700
OCc1cccc(Nc2ccc(C(F)(F)F)c(-c3n[nH]c4ncccc34)n2)c1 [Compound 78]	> 700	> 700
N#CCCNc1ccc(C(F)(F)F)c(-c2n[nH]c3ncccc23)n1 [Compound 42]	> 700	> 700
NC1CCC(CNc2cccc(-c3n[nH]c4ncccc34)n2)CC1 (stereo not shown) [Compound 13, N-((4-aminocyclohexyl)methyl)-6-(1H-pyrazolo[3,4-b]pyridin-3-yl)pyridin-2-amine]	< 500	< 500
FC(F)(F)c1ccc(NCC2CCNC2)nc1-c1n[nH]c2ncccc12 (stereo not shown) [Compound 29]	> 700	> 700
c1cc(NCC2CCNC2)nc(-c2n[nH]c3ncccc23)c1 (stereo not shown) [Compound 22]	< 500	< 500
NC(CNc1ccc(C(F)(F)F)c(-c2n[nH]c3ncccc23)n1)c1ccccc1 (stereo not shown) [Compound 36]	< 50	< 50
N[C@H](CNc1cccc(-c2n[nH]c3ncccc23)n1)c1ccccc1 [Compound 11]	< 500	< 500
NC1CCCC(Nc2ccc(C(F)(F)F)c(-c3n[nH]c4ncccc34)n2)C1 (stereo not shown) [Compound 30]	< 500	< 500
O[C@H]1CC[C@H](Nc2ccc(C(F)(F)F)c(-c3n[nH]c4ncccc34)n2)CC1 [Compound 81]	> 700	> 700
CC(C)(N)CNc1cccc(-c2n[nH]c3ncccc23)n1 [Compound 1, N1-(6-(1H-pyrazolo[3,4-b]pyridin-3-yl)pyridin-2-yl)-2-methylpropane-1,2-diamine]	< 50	< 50
OCCNc1ccc(C(F)(F)F)c(-c2n[nH]c3ncccc23)n1 [Compound 82]	> 700	> 700
CC(C)(CN)CNc1ccc(C(F)(F)F)c(-c2n[nH]c3ncccc23)n1 [Compound 33]	< 500	< 500
NC1CCC(Nc2ccc(C(F)(F)F)c(-c3n[nH]c4ncccc34)n2)CC1 (stereo not shown) [Compound 35]	> 700	> 700
FC(F)(F)c1ccc(Nc2ccc3nc[nH]c3c2)nc1-c1n[nH]c2ncccc12 [Compound 49]	> 700	> 700

From US9029546B2, “Pyrazolopyridine kinase inhibitors” (Vertex Pharmaceuticals Incorporated, priority 2008, dated 2015)
